Measurements from ChEMBL document CHEMBL4138123, “Design, synthesis and biological evaluation of novel pyrazolochalcones as potential modulators of PI3K/Akt/mTOR pathway and inducers of apoptosis in breast cancer cells” (Eur J Med Chem, 2017).

Legend:
Format in all cases: functional
HT-29 [1] = experiment: Cytotoxicity against human HT-29 cells assessed as cell growth at 0.1 uM after 48 hrs by sulforhodamine B assay relative to control; details: HT-29, 48 h, read-out: Activity
OVCAR-8 [2] = experiment: Cytotoxicity against human OVCAR8 cells assessed as growth inhibition after 48 hrs by sulforhodamine B assay; details: OVCAR-8, 48 h
NCI-H322M [3] = experiment: Cytotoxicity against human NCI-H322M cells assessed as cell growth at 100 uM after 48 hrs by sulforhodamine B assay relative to control; details: read-out: Activity
NCI/ADR-RES = experiment: Cytotoxicity against human NCI/ADR-RES cells assessed as cell growth at 10 uM after 48 hrs by sulforhodamine B assay relative to control; details: read-out: Activity
MOLT-4 = experiment: Cytotoxicity against human MOLT4 cells assessed as cell growth at 0.1 uM after 48 hrs by sulforhodamine B assay relative to control; details: MOLT-4, 48 h, read-out: Activity
IGROV-1 = experiment: Cytotoxicity against human IGROV1 cells assessed as cell growth at 0.01 uM after 48 hrs by sulforhodamine B assay relative to control; details: IGROV-1, 48 h, read-out: Activity
RPMI-8226 [4] = experiment: Cytotoxicity against human RPMI8226 cells assessed as cell growth at 0.01 uM after 48 hrs by sulforhodamine B assay relative to control; details: RPMI-8226, 48 h, read-out: Activity
786-0 = experiment: Cytotoxicity against human 786-0 cells assessed as cell growth at 0.01 uM after 48 hrs by sulforhodamine B assay relative to control; details: 786-0, 48 h, read-out: Activity
A549 = experiment: Cytotoxicity against human A549/ATCC cells assessed as cell growth at 0.01 uM after 48 hrs by sulforhodamine B assay relative to control; details: A549, 48 h, read-out: Activity
NCI-H226 = experiment: Cytotoxicity against human NCI-H226 cells assessed as cell growth at 0.1 uM after 48 hrs by sulforhodamine B assay relative to control; details: NCI-H226, 48 h, read-out: Activity
PC-3 = experiment: Cytotoxicity against human PC3 cells assessed as cell growth at 1 uM after 48 hrs by sulforhodamine B assay relative to control; details: PC-3, 48 h, read-out: Activity
HCT-116 = experiment: Cytotoxicity against human HCT116 cells assessed as cell growth at 1 uM after 48 hrs by sulforhodamine B assay relative to control; details: HCT-116, 48 h, read-out: Activity
RPMI-8226 [5] = experiment: Cytotoxicity against human RPMI8226 cells assessed as cell growth at 10 uM after 48 hrs by sulforhodamine B assay relative to control; details: RPMI-8226, 48 h, read-out: Activity
SK-OV-3 = experiment: Cytotoxicity against human SKOV3 cells assessed as cell growth at 0.01 uM after 48 hrs by sulforhodamine B assay relative to control; details: SK-OV-3, 48 h, read-out: Activity
ACHN = experiment: Cytotoxicity against human ACHN cells assessed as cell growth at 100 uM after 48 hrs by sulforhodamine B assay relative to control; details: read-out: Activity
UACC-62 = experiment: Cytotoxicity against human UACC62 cells assessed as cell growth at 0.01 uM after 48 hrs by sulforhodamine B assay relative to control; details: UACC-62, 48 h, read-out: Activity
RXF 393 [6] = experiment: Cytotoxicity against human RXF393 cells assessed as cell growth at 1 uM after 48 hrs by sulforhodamine B assay relative to control; details: RXF 393, 48 h, read-out: Activity
HT-29 [7] = experiment: Cytotoxicity against human HT-29 cells assessed as cell growth at 100 uM after 48 hrs by sulforhodamine B assay relative to control; details: HT-29, 48 h, read-out: Activity
U-251 = experiment: Cytotoxicity against human U251 cells assessed as cell growth at 0.1 uM after 48 hrs by sulforhodamine B assay relative to control; details: U-251, 48 h, read-out: Activity
SF-539 = experiment: Cytotoxicity against human SF539 cells assessed as cell growth at 0.01 uM after 48 hrs by sulforhodamine B assay relative to control; details: SF-539, 48 h, read-out: Activity
T47D = experiment: Cytotoxicity against human T47D cells assessed as cell growth at 0.01 uM after 48 hrs by sulforhodamine B assay relative to control; details: read-out: Activity
NCI-H460 = experiment: Cytotoxicity against human NCI-H460 cells assessed as cell growth at 0.01 uM after 48 hrs by sulforhodamine B assay relative to control; details: NCI-H460, 48 h, read-out: Activity
NCI-H322M [8] = experiment: Cytotoxicity against human NCI-H322M cells assessed as cell growth at 1 uM after 48 hrs by sulforhodamine B assay relative to control; details: read-out: Activity
MDA-MB-435 = experiment: Cytotoxicity against human MDA-MB-435 cells assessed as cell growth at 0.01 uM after 48 hrs by sulforhodamine B assay relative to control; details: MDA-MB-435, 48 h, read-out: Activity
HT-29 [9] = experiment: Cytotoxicity against human HT-29 cells assessed as growth inhibition after 48 hrs by sulforhodamine B assay; details: HT-29, 48 h
MCF7 = experiment: Cytotoxicity against human MCF7 cells assessed as cell growth at 10 uM after 48 hrs by sulforhodamine B assay relative to control; details: MCF7, 48 h, read-out: Activity
Malme-3M = experiment: Cytotoxicity against human MALME-3M cells assessed as cell growth at 0.01 uM after 48 hrs by sulforhodamine B assay relative to control; details: read-out: Activity
A498 = experiment: Cytotoxicity against human A498 cells assessed as cell growth at 0.01 uM after 48 hrs by sulforhodamine B assay relative to control; details: A498, 48 h, read-out: Activity
RXF 393 [10] = experiment: Cytotoxicity against human RXF393 cells assessed as cell growth at 0.01 uM after 48 hrs by sulforhodamine B assay relative to control; details: RXF 393, 48 h, read-out: Activity
UACC-257 = experiment: Cytotoxicity against human UACC257 cells assessed as cell growth at 100 uM after 48 hrs by sulforhodamine B assay relative to control; details: UACC-257, 48 h, read-out: Activity
OVCAR-8 [11] = experiment: Cytotoxicity against human OVCAR8 cells assessed as cell growth at 0.1 uM after 48 hrs by sulforhodamine B assay relative to control; details: OVCAR-8, 48 h, read-out: Activity
HT-29 [12] = experiment: Cytotoxicity against human HT-29 cells assessed as cell growth at 0.01 uM after 48 hrs by sulforhodamine B assay relative to control; details: HT-29, 48 h, read-out: Activity
OVCAR-8 [13] = experiment: Cytotoxicity against human OVCAR8 cells assessed as cell growth at 10 uM after 48 hrs by sulforhodamine B assay relative to control; details: OVCAR-8, 48 h, read-out: Activity
SF-268 = experiment: Cytotoxicity against human SF268 cells assessed as cell growth at 100 uM after 48 hrs by sulforhodamine B assay relative to control; details: SF-268, 48 h, read-out: Activity

| Structure (SMILES) | growth at 0.1 µM (HT-29 [1]) [%] | GI50 (OVCAR-8 [2]) [µM] | LC50 (OVCAR-8 [2]) [µM] | TGI (OVCAR-8 [2]) [µM] | growth at 100 µM (NCI-H322M [3]) [%] | growth at 10 µM (NCI/ADR-RES) [%] | growth at 0.1 µM (MOLT-4) [%] | growth at 0.01 µM (IGROV-1) [%] | growth at 0.01 µM (RPMI-8226 [4]) [%] | growth at 0.01 µM (786-0) [%] | growth at 0.01 µM (A549) [%] | growth at 0.1 µM (NCI-H226) [%] | growth at 1 µM (PC-3) [%] | growth at 1 µM (HCT-116) [%] | growth at 10 µM (RPMI-8226 [5]) [%] | growth at 0.01 µM (SK-OV-3) [%] | growth at 100 µM (ACHN) [%] | growth at 0.01 µM (UACC-62) [%] | growth at 1 µM (RXF 393 [6]) [%] | growth at 100 µM (HT-29 [7]) [%] | further results |
| --- | --- | --- | --- | --- | --- | --- | --- | --- | --- | --- | --- | --- | --- | --- | --- | --- | --- | --- | --- | --- | --- |
| COc1cc(C(=O)/C=C/c2cc(-c3ccc4c(c3)OCO4)n[nH]2)cc(OC)c1OC | 97 | 2.35 | 24.8 | 6.37 | -95 | 2 | 98 | 101 | 101 | 99 | 100 | 93 | 71 | 86 | -48 | 98 | -68 | 96 | 67 | -45 | growth at 0.1 µM (U-251): 96%; growth at 0.01 µM (SF-539): 101%; growth at 0.01 µM (T47D): 90%; growth at 0.01 µM (NCI-H460): 99%; growth at 1 µM (NCI-H322M [8]): 84%; growth at 0.01 µM (MDA-MB-435): 96%; GI50 (HT-29 [9]): 2.45 µM; LC50 (HT-29 [9]): > 100 µM; TGI (HT-29 [9]): 6.53 µM; growth at 10 µM (MCF7): -62%; growth at 0.01 µM (Malme-3M): 94%; growth at 0.01 µM (A498): 89%; growth at 0.01 µM (RXF 393 [10]): 93%; growth at 100 µM (UACC-257): -97%; growth at 0.1 µM (OVCAR-8 [11]): 100%; growth at 0.01 µM (HT-29 [12]): 103%; growth at 10 µM (OVCAR-8 [13]): -23%; growth at 100 µM (SF-268): -89% |
| COc1ccc(-c2cc(/C=C/C(=O)c3ccc(N)cc3)[nH]n2)cc1 | 95 | 2.44 | > 100 | 15.4 | -98 | 9 | 98 | 98 | 99 | 96 | 101 | 84 | 81 | 67 | -35 | 101 | -73 | 96 | 78 | -56 | growth at 0.1 µM (U-251): 90%; growth at 0.01 µM (SF-539): 98%; growth at 0.01 µM (T47D): 98%; growth at 0.01 µM (NCI-H460): 101%; growth at 1 µM (NCI-H322M [8]): 69%; growth at 0.01 µM (MDA-MB-435): 97%; GI50 (HT-29 [9]): 2.75 µM; LC50 (HT-29 [9]): 74.1 µM; TGI (HT-29 [9]): 8.11 µM; growth at 10 µM (MCF7): -30%; growth at 0.01 µM (Malme-3M): 93%; growth at 0.01 µM (A498): 88%; growth at 0.01 µM (RXF 393 [10]): 95%; growth at 100 µM (UACC-257): -95%; growth at 0.1 µM (OVCAR-8 [11]): 100%; growth at 0.01 µM (HT-29 [12]): 97%; growth at 10 µM (OVCAR-8 [13]): 9%; growth at 100 µM (SF-268): -61% |
| COc1ccc(-c2cc(/C=C/C(=O)c3ccc(OC)c(OC)c3)[nH]n2)cc1 | 101 | 2.16 | 57.6 | 10.4 | -98 | 15 | 108 | 97 | 106 | 100 | 93 | 90 | 71 | 51 | -56 | 109 | -98 | 99 | 72 | -81 | growth at 0.1 µM (U-251): 84%; growth at 0.01 µM (SF-539): 95%; growth at 0.01 µM (T47D): 95%; growth at 0.01 µM (NCI-H460): 100%; growth at 1 µM (NCI-H322M [8]): 72%; growth at 0.01 µM (MDA-MB-435): 97%; GI50 (HT-29 [9]): 1.55 µM; LC50 (HT-29 [9]): 7.68 µM; TGI (HT-29 [9]): 3.45 µM; growth at 10 µM (MCF7): -82%; growth at 0.01 µM (Malme-3M): 89%; growth at 0.01 µM (A498): 91%; growth at 0.01 µM (RXF 393 [10]): 82%; growth at 100 µM (UACC-257): -100%; growth at 0.1 µM (OVCAR-8 [11]): 89%; growth at 0.01 µM (HT-29 [12]): 101%; growth at 10 µM (OVCAR-8 [13]): 1%; growth at 100 µM (SF-268): -63% |
